Laboratory results: US20230148599A1, “FUNGICIDAL MIXTURES CONTAINING PYRAZOLE DERIVATIVES” (FMC Corporation, priority 2020, published 2023)

Tests used:
Assay type in all cases: in vivo
Settings in all cases: 50 ppm, 100 = 100% disease control, 0 = no control
[1] = tested on: Septoria tritici; experiment: Test A: wheat leaf blotch, preventive spray on wheat seedlings
From the text: (§1) General protocol for preparing test suspensions for Tests A-F: the test compounds were first dissolved in acetone in an amount equal to 3% of the final volume and then suspended at the desired concentration (in ppm) in acetone and purified water (50/50 mix by volume) containing 250 ppm of the surfactant PEG400 (polyhydric alcohol esters). The resulting test suspensions were then used in Tests A-F.
The test solution was sprayed to the point of run-off on wheat seedlings. The following day the seedlings were inoculated with a spore suspension of Septoria tritici (the causal agent of wheat leaf blotch) and incubated in a saturated atmosphere at 24° C. for 48 h, and then moved to a growth chamber at 20° C. for 17 days, after which time disease ratings were made.
(§2) A rating of 100 indicates 100% disease control and a rating of 0 indicates no disease control (relative to the controls). A dash (−) indicates the compound was not tested.

[2] = tested on: Puccinia recondita f. sp. tritici; experiment: Test B: wheat leaf rust, preventive spray on wheat seedlings
From the text: as §1
The test solution was sprayed to the point of run-off on wheat seedlings. The following day the seedlings were inoculated with a spore suspension of Puccinia recondita f. sp. tritici (the causal agent of wheat leaf rust) and incubated in a saturated atmosphere at 20° C. for 24 h, and then moved to a growth chamber at 20° C. for 7 days, after which time disease ratings were made.
as §2

[3] = tested on: Blumeria graminis f. sp. tritici; experiment: Test C: wheat powdery mildew, preventive spray on wheat seedlings
From the text: as §1
The test suspension was sprayed to the point of run-off on wheat seedlings. The following day the seedlings were inoculated with a spore dust of Blumeria graminis f. sp. tritici, (also known as Erysiphe graminis f. sp. tritici, the causal agent of wheat powdery mildew) and incubated in a growth chamber at 20° C. for 8 days, after which time visual disease ratings were made.
as §2

[4] = tested on: Phakopsora pachyrhizi; experiment: Test D: Asian soybean rust, preventive spray on soybean seedlings
From the text: as §1
The test solution was sprayed to the point of run-off on soybean seedlings. The following day the seedlings were inoculated with a spore suspension of Phakopsora pachyrhizi (the causal agent of Asian soybean rust) and incubated in a saturated atmosphere at 22° C. for 24 h and then moved to a growth chamber at 22° C. for 8 days, after which time visual disease ratings were made.
as §2

[5] = tested on: Botrytis cinerea; experiment: Test E: tomato Botrytis, preventive spray on tomato seedlings
From the text: as §1
The test suspension was sprayed to the point of run-off on tomato seedlings. The following day the seedlings were inoculated with a spore suspension of Botrytis cinerea (the causal agent of tomato Botrytis) and incubated in a saturated atmosphere at 20° C. for 48 h, and then moved to a growth chamber at 24° C. for 3 days, after which time visual disease ratings were made.
as §2

[6] = tested on: Alternaria solani; experiment: Test F: tomato early blight, preventive spray on tomato seedlings
From the text: as §1
The test suspension was sprayed to the point of run-off on tomato seedlings. The following day the seedlings were inoculated with a spore suspension of Alternaria solani (the causal agent of tomato early blight) and incubated in a saturated atmosphere at 27° C. for 48 h, and then moved to a growth chamber at 20° C. for 3 days, after which time visual disease ratings were made.
as §2

Cc1nn(C)c(Nc2c([N+](=O)[O-])ccc(F)c2F)c1-c1ccc(F)cc1Cl [compound 7]
Test A disease control rating [1]: 100% | Test B disease control rating [2]: 99% | Test C disease control rating [3]: 94% | Test D disease control rating [4]: 96% | Test E disease control rating [5]: 99% | Test F disease control rating [6]: 89%

Cc1nn(C)c(Nc2c(Cl)cc(Br)cc2[N+](=O)[O-])c1-c1ccc(F)cc1Cl [compound 8]
Test A disease control rating [1]: 99% | Test B disease control rating [2]: 99% | Test C disease control rating [3]: 92% | Test D disease control rating [4]: 73% | Test E disease control rating [5]: 99% | Test F disease control rating [6]: 73%

Cc1nn(C)c(Nc2c(F)cc(F)cc2[N+](=O)[O-])c1-c1ccc(Cl)cc1Cl [compound 9]
Test A disease control rating [1]: 100% | Test B disease control rating [2]: 100% | Test C disease control rating [3]: 97% | Test D disease control rating [4]: 0% | Test E disease control rating [5]: 97% | Test F disease control rating [6]: 99%

Cc1nn(C)c(Nc2c(Cl)cc(F)cc2[N+](=O)[O-])c1-c1ccc(Cl)cc1Cl [compound 10]
Test A disease control rating [1]: 100% | Test B disease control rating [2]: 99% | Test C disease control rating [3]: 48% | Test D disease control rating [4]: 0% | Test E disease control rating [5]: 68% | Test F disease control rating [6]: 9%

Cc1nn(C)c(Nc2c(F)cc(Cl)cc2[N+](=O)[O-])c1-c1ccc(Cl)cc1Cl [compound 11]
Test A disease control rating [1]: 100% | Test B disease control rating [2]: 98% | Test C disease control rating [3]: 97% | Test D disease control rating [4]: 0% | Test E disease control rating [5]: 98% | Test F disease control rating [6]: 99%

Cc1nn(C)c(Nc2c(F)cccc2[N+](=O)[O-])c1-c1ccc(Cl)cc1F [compound 12]
Test A disease control rating [1]: 100% | Test B disease control rating [2]: 99% | Test C disease control rating [3]: 81% | Test D disease control rating [4]: 0% | Test E disease control rating [5]: 97% | Test F disease control rating [6]: 53%

Cc1nn(C)c(Nc2c(F)cc(F)cc2[N+](=O)[O-])c1-c1ccc(Cl)cc1F [compound 13]
Test A disease control rating [1]: 100% | Test B disease control rating [2]: 99% | Test C disease control rating [3]: 97% | Test D disease control rating [4]: 19% | Test E disease control rating [5]: 68% | Test F disease control rating [6]: 89%

Cc1ccc(Nc2c(-c3ccc(C#N)cc3Cl)c(C)nn2C)c([N+](=O)[O-])c1 [compound 14]
Test A disease control rating [1]: 100% | Test B disease control rating [2]: 97% | Test C disease control rating [3]: 83% | Test D disease control rating [4]: 48% | Test E disease control rating [5]: 96% | Test F disease control rating [6]: 83%

Cc1cc(Cl)c(Nc2c(-c3ccc(F)cc3F)c(C)nn2C)c([N+](=O)[O-])c1 [compound 15]
Test A disease control rating [1]: 100% | Test B disease control rating [2]: 100% | Test C disease control rating [3]: 98% | Test D disease control rating [4]: 61% | Test E disease control rating [5]: 99% | Test F disease control rating [6]: 53%

CCc1nn(C)c(Nc2c(Cl)cc(C)cc2[N+](=O)[O-])c1-c1ccc(F)cc1F [compound 16]
Test A disease control rating [1]: 100% | Test B disease control rating [2]: 99% | Test C disease control rating [3]: 98% | Test D disease control rating [4]: 50% | Test E disease control rating [5]: 99% | Test F disease control rating [6]: 0%

CCc1nn(C)c(Nc2c(Cl)cccc2[N+](=O)[O-])c1-c1ccc(F)cc1F [compound 17]
Test A disease control rating [1]: 100% | Test B disease control rating [2]: 92% | Test C disease control rating [3]: 94% | Test D disease control rating [4]: 0% | Test E disease control rating [5]: 99% | Test F disease control rating [6]: 9%

Cc1nn(C)c(Nc2ccc(F)cc2[N+](=O)[O-])c1-c1ccc(F)cc1Br [compound 20]
Test A disease control rating [1]: 100% | Test B disease control rating [2]: 89% | Test C disease control rating [3]: 92% | Test D disease control rating [4]: 0% | Test E disease control rating [5]: 99% | Test F disease control rating [6]: 26%

Cc1nn(C)c(Nc2ccc(Br)cc2[N+](=O)[O-])c1-c1ccc(F)cc1Br [compound 21]
Test A disease control rating [1]: 100% | Test B disease control rating [2]: 86% | Test C disease control rating [3]: 84% | Test D disease control rating [4]: 0% | Test E disease control rating [5]: 95% | Test F disease control rating [6]: 17%

Cc1nn(C)c(Nc2ccc(Cl)cc2[N+](=O)[O-])c1-c1c(F)cccc1Cl [compound 22]
Test A disease control rating [1]: 100% | Test B disease control rating [2]: 93% | Test C disease control rating [3]: 97% | Test D disease control rating [4]: 0% | Test E disease control rating [5]: 99% | Test F disease control rating [6]: 64%

Cc1cc(Cl)c(Nc2c(-c3c(F)cccc3Cl)c(C)nn2C)c([N+](=O)[O-])c1 [compound 24]
Test A disease control rating [1]: 100% | Test B disease control rating [2]: 89% | Test C disease control rating [3]: 0% | Test D disease control rating [4]: 0% | Test E disease control rating [5]: 97% | Test F disease control rating [6]: 0%

Cc1nn(C)c(Nc2c(F)cccc2[N+](=O)[O-])c1-c1c(F)cccc1Cl [compound 25]
Test A disease control rating [1]: 100% | Test B disease control rating [2]: 100% | Test C disease control rating [3]: 99% | Test D disease control rating [4]: 98% | Test E disease control rating [5]: 100% | Test F disease control rating [6]: 98%

Cc1ccc(Nc2c(-c3ccc(F)cc3Cl)c(C)nn2C)c([N+](=O)[O-])c1 [compound 26]
Test A disease control rating [1]: 100% | Test B disease control rating [2]: 99% | Test C disease control rating [3]: 94% | Test D disease control rating [4]: 77% | Test E disease control rating [5]: 100% | Test F disease control rating [6]: 68%

Cc1ccc(Nc2c(-c3ccc(F)cc3F)c(C)nn2C)c([N+](=O)[O-])c1 [compound 107]
Test B disease control rating [2]: 91% | Test C disease control rating [3]: 61% | Test D disease control rating [4]: 0% | Test E disease control rating [5]: 98% | Test F disease control rating [6]: 0%
